Measured values reported in patent US20240327364A1, “THERAPEUTIC TARGETING OF GPR68 TO INDUCE FERROPTOSIS” (University Of Maryland, Baltimore, priority 2023, published 2024).

What was measured:
GPR4 = target: T1, GPR4 (Homo sapiens, UniProt P46093); assay: SRE-luciferase assay, GPR4-transfected HEK293 cells; assay type: cell-based; details: OGM2 at 1, 10, or 100 μM
T1 construct: expressed in transfected cells
Description: 12-well plates of cells were transfected with 1 μg DNA using Lipofectamine 3000 with sre:luciferase and either the vector backbone, GFP, GPR68, GPR68-GFP, GPR4, or 336X-GFP. After 3 days, these cells were then lysed, and cell extracts were subjected to Steady-Glo luciferase assay (Promega™) according to the manufacturer's instructions. The results were normalized to cell titer, as determined using Cell Titer-Glo luminescence assay (Promega™). For some procedure, the cells were treated in serum-free medium, and were lysed on the third day.
Because GPR4, the paralog with highest homology with GPR68, was not covered in the initial GPCR profiling, whether OGM2 could inhibit GPR4 was tested by examining the effects of OGM2 on acid-induced serum responsive element (SRE) luciferase activity in HEK293 cells transfected with either GPR4 or GPR68. Mild acidification increased luciferase activity in GPR4 and GPR68 transfected cells above that of vector control.
Cas9^GPR68=GPR68 targeted sgRNA and Cas9; CTL=control; MoGPR68=GPR68 morpholino treatment. […] These cells were exposed to acidic media and assayed for luciferase activity as a readout of the receptor activity.

ANKK1 = target: T2, ANKK1 (Homo sapiens, UniProt Q8NFD2); assay: KinomeScan; assay type: binding; details: read-out: % Control
T2 construct: purchased DiscoveRx (Fremont, CA)

CAMK2B = target: T3, CAMK2B (Homo sapiens, UniProt Q13554); assay: KinomeScan; assay type: binding; details: read-out: % Control
T3 construct: purchased DiscoveRx (KinomeScan service)

CDKL2 = CDKL2 (Homo sapiens, UniProt Q92772); assay: KinomeScan; assay type: binding; details: read-out: % Control
CDKL3 = CDKL3 (Homo sapiens, UniProt Q8IVW4); assay: KinomeScan; assay type: binding; details: read-out: % Control
CLK1 = CLK1 (Homo sapiens, UniProt P49759); assay: KinomeScan; assay type: binding; details: read-out: % Control
CSNK1A1L = CSNK1A1L (Homo sapiens, UniProt Q8N752); assay: KinomeScan; assay type: binding; details: read-out: % Control
DDR1 = target: T4, DDR1 (Homo sapiens, UniProt Q08345); assay: KinomeScan; assay type: binding; details: read-out: % Control
T4 construct: purchased DiscoveRx (Fremont, CA), KinomeScan service

EGFR(L858R) = target: T5, EGFR(L858R) (Homo sapiens, UniProt P00533, L858R); assay: KinomeScan; assay type: binding; details: read-out: % Control
T5 construct: purchased DiscoveRx (Fremont, CA), KinomeScan service

EPHA3 = target: T6, EPHA3 (Homo sapiens, UniProt P29320); assay: KinomeScan; assay type: binding; details: read-out: % Control
T6 construct: purchased DiscoveRx (Fremont, CA)

EPHB4 = target: T7, EPHB4 (Homo sapiens, UniProt P54760); assay: KinomeScan; assay type: binding; details: read-out: % Control
T7 construct: purchased DiscoveRx (Fremont, CA)

GRK1 = target: T8, GRK1 (Homo sapiens, UniProt Q15835); assay: KinomeScan; assay type: binding; details: read-out: % Control
T8 construct: purchased DiscoveRx (Fremont, CA)

LIMK2 = target: T9, LIMK2 (Homo sapiens, UniProt P53671); assay: KinomeScan; assay type: binding; details: read-out: % Control
T9 construct: purchased DiscoveRx

LOK = target: T10, LOK (Homo sapiens, UniProt O94804); assay: KinomeScan; assay type: binding; details: read-out: % Control
T10 construct: purchased DiscoveRx

PKN2 = target: T11, PKN2 (Homo sapiens, UniProt Q16513); assay: KinomeScan; assay type: binding; details: read-out: % Control
T11 construct: purchased DiscoveRx (Fremont, CA)

PRKCI = target: T12, PRKCI (Homo sapiens, UniProt P41743); assay: KinomeScan; assay type: binding; details: read-out: % Control
T12 construct: purchased DiscoveRx (Fremont, CA)

TNNI3K = target: T13, TNNI3K (Homo sapiens, UniProt Q59H18); assay: KinomeScan; assay type: binding; details: read-out: % Control
T13 construct: purchased DiscoveRx (Fremont, CA)

VRK2 = target: T14, VRK2 (Homo sapiens, UniProt Q86Y07); assay: KinomeScan; assay type: binding; details: read-out: % Control
T14 construct: purchased DiscoveRx

ADRA1D = target: T15, ADRA1D (Homo sapiens, UniProt P25100); assay: GPCR Profiler; assay type: cell-based
T15 construct: host or cells: Chem-1 cells with promiscuous Gα15

CysLT1 = target: T16, CysLT1 (Homo sapiens, UniProt Q9Y271); assay: GPCR Profiler; assay type: cell-based
T16 construct: host or cells: Chem-1 cells with Gα15

OT = target: T17, OT (Homo sapiens, UniProt P30559); assay: GPCR Profiler; assay type: cell-based
T17 construct: host or cells: Chem-1 cells expressing Gα15

PTH2 = target: T18, PTH2 (Homo sapiens, UniProt P49190); assay: GPCR Profiler; assay type: cell-based
T18 construct: host or cells: Chem-1 cells with Gα15

S1P5 = target: T19, S1P5 (Homo sapiens, UniProt Q9H228); assay: GPCR Profiler; assay type: cell-based
T19 construct: host or cells: Chem-1 cells with Gα15
T19 sequence (Q9H228 whole entry, species assumed): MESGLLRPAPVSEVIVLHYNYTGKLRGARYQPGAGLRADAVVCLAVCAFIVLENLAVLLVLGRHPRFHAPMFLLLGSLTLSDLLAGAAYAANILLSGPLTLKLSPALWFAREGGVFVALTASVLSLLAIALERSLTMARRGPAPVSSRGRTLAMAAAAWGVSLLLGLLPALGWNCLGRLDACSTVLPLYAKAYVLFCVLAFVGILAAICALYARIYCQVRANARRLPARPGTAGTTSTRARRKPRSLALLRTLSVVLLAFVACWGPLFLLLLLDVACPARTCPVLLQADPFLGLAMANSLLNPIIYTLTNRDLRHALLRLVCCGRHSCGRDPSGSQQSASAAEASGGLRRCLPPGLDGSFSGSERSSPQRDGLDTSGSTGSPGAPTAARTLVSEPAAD

T17 sequence (P30559 whole entry): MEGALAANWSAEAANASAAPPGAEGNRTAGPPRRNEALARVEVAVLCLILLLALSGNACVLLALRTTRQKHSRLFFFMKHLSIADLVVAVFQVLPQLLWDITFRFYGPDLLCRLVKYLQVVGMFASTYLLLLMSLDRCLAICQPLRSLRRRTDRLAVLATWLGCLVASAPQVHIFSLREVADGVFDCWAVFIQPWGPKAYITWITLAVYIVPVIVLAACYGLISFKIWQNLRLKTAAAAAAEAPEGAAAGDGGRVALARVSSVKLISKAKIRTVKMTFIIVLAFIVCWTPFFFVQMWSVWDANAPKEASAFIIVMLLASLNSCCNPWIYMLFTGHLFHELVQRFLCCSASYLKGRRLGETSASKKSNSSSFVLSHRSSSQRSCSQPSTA
T15 sequence (P25100 whole entry, species assumed): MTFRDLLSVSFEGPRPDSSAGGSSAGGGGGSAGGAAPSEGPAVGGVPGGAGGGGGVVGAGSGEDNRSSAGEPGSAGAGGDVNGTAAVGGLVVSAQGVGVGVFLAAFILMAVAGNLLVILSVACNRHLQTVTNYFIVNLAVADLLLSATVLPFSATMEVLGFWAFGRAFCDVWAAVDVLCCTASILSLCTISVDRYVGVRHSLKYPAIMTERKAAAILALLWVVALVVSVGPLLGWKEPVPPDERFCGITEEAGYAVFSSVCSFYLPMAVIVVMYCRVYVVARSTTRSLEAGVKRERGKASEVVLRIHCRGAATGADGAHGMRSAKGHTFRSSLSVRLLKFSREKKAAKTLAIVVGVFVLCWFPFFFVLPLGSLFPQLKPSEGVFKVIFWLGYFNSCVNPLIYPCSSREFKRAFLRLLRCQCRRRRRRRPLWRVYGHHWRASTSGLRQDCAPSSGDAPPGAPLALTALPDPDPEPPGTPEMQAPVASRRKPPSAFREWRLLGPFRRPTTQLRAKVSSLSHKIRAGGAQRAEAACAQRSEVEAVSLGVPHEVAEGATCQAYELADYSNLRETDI
T16 sequence (Q9Y271 whole entry, species assumed): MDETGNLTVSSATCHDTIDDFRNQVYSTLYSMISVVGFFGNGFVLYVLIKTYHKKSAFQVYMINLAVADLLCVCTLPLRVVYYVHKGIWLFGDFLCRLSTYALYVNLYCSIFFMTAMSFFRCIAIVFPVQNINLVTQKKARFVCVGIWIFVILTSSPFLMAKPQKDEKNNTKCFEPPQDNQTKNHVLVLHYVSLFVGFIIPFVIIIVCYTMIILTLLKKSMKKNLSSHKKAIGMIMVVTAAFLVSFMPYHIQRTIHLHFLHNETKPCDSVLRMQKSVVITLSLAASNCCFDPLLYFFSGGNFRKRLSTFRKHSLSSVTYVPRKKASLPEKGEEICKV
T18 sequence (P49190 25-550): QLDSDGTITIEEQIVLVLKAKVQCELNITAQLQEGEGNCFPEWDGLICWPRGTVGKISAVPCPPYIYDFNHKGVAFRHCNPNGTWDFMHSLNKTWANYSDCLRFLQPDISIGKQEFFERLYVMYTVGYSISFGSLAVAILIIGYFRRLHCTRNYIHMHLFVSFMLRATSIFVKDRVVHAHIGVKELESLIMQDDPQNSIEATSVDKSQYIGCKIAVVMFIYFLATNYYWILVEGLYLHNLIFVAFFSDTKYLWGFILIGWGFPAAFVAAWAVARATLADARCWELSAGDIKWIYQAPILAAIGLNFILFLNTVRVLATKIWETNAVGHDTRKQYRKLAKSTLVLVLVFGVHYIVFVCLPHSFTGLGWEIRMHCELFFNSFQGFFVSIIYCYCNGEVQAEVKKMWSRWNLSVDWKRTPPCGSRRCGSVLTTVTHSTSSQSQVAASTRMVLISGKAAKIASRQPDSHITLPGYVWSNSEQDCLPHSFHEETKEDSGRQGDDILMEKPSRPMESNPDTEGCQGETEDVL
T6 sequence (P29320 21-983): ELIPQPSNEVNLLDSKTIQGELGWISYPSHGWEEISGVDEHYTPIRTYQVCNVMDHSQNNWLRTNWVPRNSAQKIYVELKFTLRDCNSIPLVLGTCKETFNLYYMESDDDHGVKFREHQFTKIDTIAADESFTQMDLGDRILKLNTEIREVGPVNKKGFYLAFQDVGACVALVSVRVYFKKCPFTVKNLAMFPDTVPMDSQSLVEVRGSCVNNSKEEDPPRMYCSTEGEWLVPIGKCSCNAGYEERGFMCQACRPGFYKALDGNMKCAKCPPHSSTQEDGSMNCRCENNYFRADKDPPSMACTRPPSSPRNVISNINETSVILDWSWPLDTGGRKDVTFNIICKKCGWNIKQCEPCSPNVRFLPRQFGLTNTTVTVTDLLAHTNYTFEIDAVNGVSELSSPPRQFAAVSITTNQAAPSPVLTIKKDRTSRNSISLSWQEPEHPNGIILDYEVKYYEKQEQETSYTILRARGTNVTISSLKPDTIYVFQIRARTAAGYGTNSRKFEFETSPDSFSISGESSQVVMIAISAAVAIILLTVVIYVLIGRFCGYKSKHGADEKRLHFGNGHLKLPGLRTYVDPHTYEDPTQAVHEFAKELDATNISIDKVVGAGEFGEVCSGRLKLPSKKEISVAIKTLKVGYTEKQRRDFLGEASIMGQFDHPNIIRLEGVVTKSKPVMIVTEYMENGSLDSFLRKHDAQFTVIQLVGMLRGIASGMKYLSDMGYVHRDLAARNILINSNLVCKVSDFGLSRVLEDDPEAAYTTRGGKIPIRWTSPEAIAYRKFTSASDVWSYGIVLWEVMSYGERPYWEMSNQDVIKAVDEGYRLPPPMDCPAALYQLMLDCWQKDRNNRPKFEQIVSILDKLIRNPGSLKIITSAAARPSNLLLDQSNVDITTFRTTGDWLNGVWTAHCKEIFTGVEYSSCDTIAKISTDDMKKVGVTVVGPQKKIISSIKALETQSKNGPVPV
T11 sequence (Q16513 whole entry): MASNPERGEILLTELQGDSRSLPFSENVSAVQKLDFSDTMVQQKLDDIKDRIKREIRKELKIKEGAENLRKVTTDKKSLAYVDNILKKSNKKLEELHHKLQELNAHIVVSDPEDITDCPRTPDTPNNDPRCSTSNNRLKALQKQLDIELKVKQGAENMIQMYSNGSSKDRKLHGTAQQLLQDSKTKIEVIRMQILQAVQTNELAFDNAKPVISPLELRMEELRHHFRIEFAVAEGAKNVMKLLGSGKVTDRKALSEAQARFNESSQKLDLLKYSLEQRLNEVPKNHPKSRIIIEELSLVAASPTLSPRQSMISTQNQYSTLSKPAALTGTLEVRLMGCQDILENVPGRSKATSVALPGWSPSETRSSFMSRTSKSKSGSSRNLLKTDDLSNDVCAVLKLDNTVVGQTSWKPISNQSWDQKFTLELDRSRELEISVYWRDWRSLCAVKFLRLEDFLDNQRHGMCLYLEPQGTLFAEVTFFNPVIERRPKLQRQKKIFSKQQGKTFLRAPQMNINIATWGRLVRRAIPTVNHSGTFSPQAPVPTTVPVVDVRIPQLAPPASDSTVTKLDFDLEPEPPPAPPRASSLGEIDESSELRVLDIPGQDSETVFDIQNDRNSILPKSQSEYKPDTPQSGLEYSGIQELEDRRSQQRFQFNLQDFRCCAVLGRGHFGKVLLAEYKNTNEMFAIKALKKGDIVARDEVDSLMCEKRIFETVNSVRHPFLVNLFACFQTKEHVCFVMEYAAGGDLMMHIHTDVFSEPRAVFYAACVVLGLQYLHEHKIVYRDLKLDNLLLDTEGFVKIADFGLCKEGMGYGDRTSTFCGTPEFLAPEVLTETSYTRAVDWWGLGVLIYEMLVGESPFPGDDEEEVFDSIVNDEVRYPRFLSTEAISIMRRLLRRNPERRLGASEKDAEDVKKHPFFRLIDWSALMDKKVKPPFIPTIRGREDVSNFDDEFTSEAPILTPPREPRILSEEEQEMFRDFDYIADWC
T8 sequence (Q15835 whole entry): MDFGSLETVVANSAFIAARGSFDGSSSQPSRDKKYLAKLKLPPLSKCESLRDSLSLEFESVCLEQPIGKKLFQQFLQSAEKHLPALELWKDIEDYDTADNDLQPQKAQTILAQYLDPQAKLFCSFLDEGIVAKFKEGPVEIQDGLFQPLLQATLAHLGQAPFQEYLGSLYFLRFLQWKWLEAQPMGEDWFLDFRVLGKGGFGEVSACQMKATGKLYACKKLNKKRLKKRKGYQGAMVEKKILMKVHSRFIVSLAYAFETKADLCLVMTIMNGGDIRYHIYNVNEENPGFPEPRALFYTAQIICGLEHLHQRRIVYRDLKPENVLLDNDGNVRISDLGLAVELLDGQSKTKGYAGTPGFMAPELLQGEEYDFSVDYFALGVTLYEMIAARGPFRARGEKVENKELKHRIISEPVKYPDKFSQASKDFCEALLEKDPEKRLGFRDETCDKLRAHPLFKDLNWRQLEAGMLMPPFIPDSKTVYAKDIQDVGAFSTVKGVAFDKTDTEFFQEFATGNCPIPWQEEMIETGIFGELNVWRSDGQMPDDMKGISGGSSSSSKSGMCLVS

SMILES: CCc1ccc2c(c1)C1(NN=C(c3ccccc3)S1)C(=O)N2 (stereo not shown) [OGM2]
- acid-induced SRE-luciferase activity (GPR4): not inhibited

SMILES: CCc1ccc2c(c1)C1(NN=C(c3cccc4ccccc34)S1)C(=O)N2 (stereo not shown) [OGM1, 5-ethyl-5′-naphthalen-1-ylspiro[1H-indole-3,2′-3H-1,3,4-thiadiazole]-2-one]
- remaining binding at 10 µM (ANKK1): 100%
- remaining binding at 10 µM (CAMK2B): 60%
- remaining binding at 10 µM (CDKL2): 100%
- remaining binding at 10 µM (CDKL3): 100%
- remaining binding at 10 µM (CLK1): 100%
- remaining binding at 10 µM (CSNK1A1L): 100%
- remaining binding at 10 µM (DDR1): 100%
- remaining binding at 10 µM (EGFR(L858R)): 100%
- remaining binding at 10 µM (EPHA3): 78%
- remaining binding at 10 µM (EPHB4): 100%
- remaining binding at 10 µM (GRK1): 100%
- remaining binding at 10 µM (LIMK2): 100%
- remaining binding at 10 µM (LOK): 100%
- remaining binding at 10 µM (PKN2): 100%
- remaining binding at 10 µM (PRKCI): 94%
- remaining binding at 10 µM (TNNI3K): 100%
- remaining binding at 10 µM (VRK2): 93%
- Antagonism (ADRA1D; 10 uM): −5.7
- Agonism (ADRA1D; 12.5 uM): 0.8
- Antagonism (CysLT1; 10 uM): −2.4
- Agonism (CysLT1; 12.5 uM): 0.8
- Antagonism (OT; 10 uM): −2.4
- Agonism (OT; 12.5 uM): 0.7
- Antagonism (PTH2; 10 uM): −19.2
- Agonism (PTH2; 12.5 uM): 1.1
- Antagonism (S1P5; 10 uM): 0.9
- Agonism (S1P5; 12.5 uM): 1.8
